The assay concerns BDF1 mice, P388 leukemia ip, median survival T/C. Kind of assay: NCI In Vivo Anticancer Drug Screen. Data for tumor model P388 Leukemia (intraperitoneal) in B6D2F1 (BDF1) mice. As to conditions: endpoint: median survival time, higher = longer survival. The gist of the method:
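Compound-treated tumour-bearing mice were compared with vehicle-treated controls. Survival was recorded, and the value is the treated-group measurement divided by the control-group measurement (T/C).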

Setting [1] is: dose: 50.0 mg/kg/injection, schedule: Q04DX003 (ip), vehicle: saline with Tween-80.
Where [2] appears, read: dose: 100.0 mg/kg/injection, schedule: Q01DX009 (ip), vehicle: saline with Tween-80.
[3] abbreviates: dose: 100.0 mg/kg/injection, schedule: Q04DX003 (ip), vehicle: saline with Tween-80.
Setting [4] is: dose: 200.0 mg/kg/injection, schedule: Q01DX009 (ip), vehicle: saline with Tween-80.
Where [5] appears, read: dose: 200.0 mg/kg/injection, schedule: Q04DX003 (ip), vehicle: saline with Tween-80.
Where [6] appears, read: dose: 50.0 mg/kg/injection, schedule: Q01DX009 (ip), vehicle: saline with Tween-80.
[7] abbreviates: dose: 12.5 mg/kg/injection, schedule: Q04DX003 (ip), vehicle: saline.
The mark [8] stands for this setting: dose: 25.0 mg/kg/injection, schedule: Q04DX003 (ip), vehicle: saline.
Setting [9] is: dose: 50.0 mg/kg/injection, schedule: Q04DX003 (ip), vehicle: saline.
Setting [10] is: dose: 100.0 mg/kg/injection, schedule: Q04DX003 (ip), vehicle: saline.

The record followed here is PubChem BioAssay AID328 (DTP/NCI, 2004).

Each structure is given as a SMILES string. Values joined by “and” are separate entries in the source; they are usually repeats but may differ in a detail not shown here. Identical values can stand only once. Inconclusive results and toxic doses are left out. Non-standard residues stand in square brackets, D forms with d. Residues, ends and D or L forms follow the SMILES beside them. ξ: configuration not given here. ξPhe(4-N(CH2CH2Cl)2) = NC(Cc1ccc(N(CCCl)CCCl)cc1)C(=O)O

Regarding `C(=NCCN=Cc1c[nH]c2ccccc12)c1c[nH]c2ccccc12`, the T/C by setting is: under setting [1], 111 % of control; under setting [2], 88 % of control; under setting [3], 103 % of control; under setting [4], 92 % of control; under setting [5], 100 % of control; (dose: 400.0 mg/kg/injection, schedule: Q01DX009 (ip), vehicle: saline with Tween-80) 103 % of control.
For the molecule `CCOC(=O)C(Cc1ccc(N(CCCl)CCCl)cc1)NC(=O)C(CCC(=O)O)NC(=O)C(CO)NC(=O)C(CCC(=O)O)NC(=O)C(N)CO` (stereo not given) (H-SESE[ξPhe(4-N(CH2CH2Cl)2)]-OEt; configuration not given here), the T/C was 97 % of control (dose: 5.0 mg/kg/injection, schedule: Q04DX003 (ip), vehicle: water); 99 % of control (dose: 10.0 mg/kg/injection, schedule: Q04DX003 (ip), vehicle: water); 100 % of control (dose: 20.0 mg/kg/injection, schedule: Q04DX003 (ip), vehicle: water); 100 % of control (dose: 40.0 mg/kg/injection, schedule: Q04DX003 (ip), vehicle: water).
With `Cc1ccc2c(c1)SSc1ccc(C)cc1SS2`, the T/C under setting [6] is 103 % of control, the T/C under setting [2] was 109 % of control and the T/C under setting [4] is 114 % of control.
Consider `CC(=O)Nc1cscc1NC(C)=O`, for which the T/C under setting [6] was 110 % of control and 123 % of control; the T/C under setting [2] is 119 % of control and 123 % of control; the T/C under setting [4] was 123 % of control.
In the case of `COC(=O)c1cc(OC)cc(OC)c1`, the T/C is 100 % of control (dose: 100.0 mg/kg/injection, schedule: Q04DX003 (ip), vehicle: other); 113 % of control (dose: 200.0 mg/kg/injection, schedule: Q04DX003 (ip), vehicle: other); 109 % of control (dose: 400.0 mg/kg/injection, schedule: Q04DX003 (ip), vehicle: other).
Turning to `CN(C)Cc1cc(C(C)(C)CC(C)(C)C)ccc1O`, the T/C by setting is: (dose: 100.0 mg/kg/injection, schedule: Q04DX002 (ip), vehicle: Klucel (hydroxypropylcellulose) (HPC)) 114 % of control; (dose: 200.0 mg/kg/injection, schedule: Q04DX002 (ip), vehicle: Klucel (hydroxypropylcellulose) (HPC)) 99 % of control.
For the molecule `NC(=O)c1cc([N+](=O)[O-])ccc1N`, the T/C runs as follows: (dose: 100.0 mg/kg/injection, schedule: Q04DX003 (ip), vehicle: saline sonified) 115 % of control; (dose: 200.0 mg/kg/injection, schedule: Q04DX003 (ip), vehicle: saline sonified) 110 % of control; (dose: 400.0 mg/kg/injection, schedule: Q04DX003 (ip), vehicle: saline sonified) 120 % of control.
Take `CN(C)c1ccc(/C=N/NC(N)=S)nc1`: the T/C (dose: 44.0 mg/kg/injection, schedule: Q04DX003 (ip), vehicle: saline with Tween-80) is 159 % of control; the T/C (dose: 66.0 mg/kg/injection, schedule: Q04DX003 (ip), vehicle: saline with Tween-80) was 150 % of control and 163 % of control; the T/C under setting [3] was 177 % of control; the T/C (dose: 150.0 mg/kg/injection, schedule: Q04DX003 (ip), vehicle: saline with Tween-80) was 213 % of control.
Turning to `Cc1ccc(Nc2nnc(N=Nc3ccccc3)s2)cc1C`, the T/C reads like this: (dose: 100.0 mg/kg/injection, schedule: Q01DX001 (ip), vehicle: Klucel (hydroxypropylcellulose) (HPC)) 100 % of control; (dose: 200.0 mg/kg/injection, schedule: Q01DX001 (ip), vehicle: Klucel (hydroxypropylcellulose) (HPC)) 90 % of control; (dose: 400.0 mg/kg/injection, schedule: Q01DX001 (ip), vehicle: Klucel (hydroxypropylcellulose) (HPC)) 100 % of control.
Regarding `CN1CCN(C2=Nc3ccccc3Cc3ccccc32)CC1`, the T/C by setting is: (dose: 12.5 mg/kg/injection, schedule: Q01DX009 (ip), vehicle: saline with Tween-80) 103 % of control; (dose: 25.0 mg/kg/injection, schedule: Q01DX009 (ip), vehicle: saline with Tween-80) 102 % of control; under setting [6], 105 % of control and 108 % of control.
As to `CC1CN1P(=O)(N1CCCC1)N1CC1C` (stereo not given), the T/C is 102 % of control under setting [7]; 156 % of control (dose: 25.0 mg/kg/injection, schedule: Q01DX009 (ip), vehicle: saline); 105 % of control under setting [8]; 155 % of control (dose: 32.0 mg/kg/injection, schedule: Q01DX009 (ip), vehicle: saline); 173 % of control (dose: 37.5 mg/kg/injection, schedule: Q01DX009 (ip), vehicle: saline); 169 % of control under setting [9]. Moreover, the T/C runs as follows: (dose: 64.0 mg/kg/injection, schedule: Q01DX009 (ip), vehicle: saline) 87 % of control; under setting [10], 179 % of control.
For `CNCC(=O)NC(CO)C(=O)NC1C(C(N)=O)OC(n2ccc(N)nc2=O)C(O)C1O` (stereo not given), the T/C by setting is: (dose: 0.75 mg/kg/injection, schedule: Q04DX003 (ip), vehicle: saline) 103 % of control; (dose: 1.5 mg/kg/injection, schedule: Q04DX003 (ip), vehicle: saline) 112 % of control; (dose: 3.0 mg/kg/injection, schedule: Q04DX003 (ip), vehicle: saline) 102 % of control.
Take `COc1ccccc1C(=O)NN`: the T/C reads like this: (dose: 6.25 mg/kg/injection, schedule: Q04DX003 (ip), vehicle: saline) 100 % of control; under setting [7], 110 % of control; under setting [8], 105 % of control.
For the molecule `O=C1NC(=O)C([N+](=O)[O-])=C(O)C1=O`, the T/C reads like this: (dose: 1.0 mg/kg/injection, schedule: Q01DX009 (ip), vehicle: saline with Tween-80) 110 % of control; (dose: 4.0 mg/kg/injection, schedule: Q01DX009 (ip), vehicle: saline with Tween-80) 105 % of control; (dose: 8.0 mg/kg/injection, schedule: Q01DX009 (ip), vehicle: saline with Tween-80) 100 % of control; (dose: 9.0 mg/kg/injection, schedule: Q01DX009 (ip), vehicle: saline with Tween-80) 150 % of control; (dose: 15.0 mg/kg/injection, schedule: Q01DX009 (ip), vehicle: saline with Tween-80) 95 % of control; (dose: 18.0 mg/kg/injection, schedule: Q01DX009 (ip), vehicle: saline with Tween-80) 110 % of control. Further, the T/C reads like this: (dose: 25.0 mg/kg/injection, schedule: Q04DX003 (ip), vehicle: other) 104 % of control; (dose: 35.0 mg/kg/injection, schedule: Q01DX009 (ip), vehicle: saline with Tween-80) 100 % of control and 120 % of control; (dose: 35.0 mg/kg/injection, schedule: Q04DX003 (ip), vehicle: other) 104 % of control; under setting [6], 90 % of control and 95 % of control; (dose: 50.0 mg/kg/injection, schedule: Q04DX003 (ip), vehicle: other) 104 % of control; under setting [9], 118 % of control. The T/C reads like this: (dose: 75.0 mg/kg/injection, schedule: Q01DX009 (ip), vehicle: saline with Tween-80) 105 % of control; (dose: 75.0 mg/kg/injection, schedule: Q04DX003 (ip), vehicle: other) 100 % of control; under setting [10], 109 % of control; (dose: 150.0 mg/kg/injection, schedule: Q01DX009 (ip), vehicle: saline with Tween-80) 95 % of control; (dose: 200.0 mg/kg/injection, schedule: Q04DX003 (ip), vehicle: saline) 104 % of control and 122 % of control; (dose: 300.0 mg/kg/injection, schedule: Q01DX009 (ip), vehicle: saline with Tween-80) 90 % of control.
Turning to `O=C(NO)/C(Cc1ccccc1)=N/O`, the T/C is, setting by setting: under setting [6], 99 % of control; under setting [2], 104 % of control; under setting [4], 98 % of control.
As for `N#CO`, the T/C runs as follows: (dose: 33.0 mg/kg/injection, schedule: Q01DX009 (ip), vehicle: saline) 103 % of control (2×) and 113 % of control; (dose: 42.0 mg/kg/injection, schedule: Q01DX009 (ip), vehicle: saline) 109 % of control; (dose: 50.0 mg/kg/injection, schedule: Q01DX009 (ip), vehicle: saline) 96 % of control and 122 % of control; (dose: 56.0 mg/kg/injection, schedule: Q01DX009 (ip), vehicle: saline) 90 % of control; (dose: 75.0 mg/kg/injection, schedule: Q01DX009 (ip), vehicle: saline) 100 % of control and 121 % of control; (dose: 100.0 mg/kg/injection, schedule: Q01DX009 (ip), vehicle: saline) 109 % of control.
As for `O=C(O)CNC(=O)Nc1ccccc1`, the T/C runs as follows: (dose: 25.0 mg/kg/injection, schedule: Q04DX003 (ip), vehicle: saline with Tween-80) 91 % of control; under setting [1], 100 % of control; under setting [3], 100 % of control; under setting [5], 87 % of control; (dose: 400.0 mg/kg/injection, schedule: Q04DX003 (ip), vehicle: saline with Tween-80) 104 % of control.
